# Patent US6737383B1, “Herbicidal oxadiazolidines” (priority 1999, dated 2004)
# Experiments:
# [1] = tested on: bedstraw; experiment: Test B pre/postemergence bedstraw; format: in vivo, Galium aparine; details: Postemergence
# Outline: (§1)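 Response is a visual 0-to-10 score relative to untreated plants, where 0 means no effect and 10 means complete control, taken twelve to sixteen days after application. Treatments went onto soil at planting and onto foliage of 1- to 4-leaf plants, using a surfactant-containing non-phytotoxic solvent.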
# [2] = tested on: blackgrass; experiment: Test B pre/postemergence blackgrass; format: in vivo, Alopecurus myosuroides
# Outline: as §1
# [3] = tested on: surinam grass; experiment: Test B pre/postemergence surinam grass; format: in vivo, Brachiaria decumbens
# Outline: as §1
# [4] = tested on: cocklebur; experiment: Test B pre/postemergence cocklebur; format: in vivo, Xanthium strumarium
# Outline: as §1
# [5] = tested on: corn; experiment: Test B pre/postemergence corn; format: in vivo, Zea mays
# Outline: as §1
# [6] = tested on: crabgrass; experiment: Test B pre/postemergence crabgrass; format: in vivo, Digitaria sanguinalis
# Outline: as §1
# [7] = tested on: giant foxtail; experiment: Test B pre/postemergence giant foxtail; format: in vivo, Setaria faberii
# Outline: as §1
# [8] = tested on: morningglory; experiment: Test B pre/postemergence morningglory; format: in vivo, Ipomoea hederacea
# Outline: as §1
# [9] = tested on: pigweed; experiment: Test B pre/postemergence pigweed; format: in vivo, Amaranthus retroflexus
# Outline: as §1
# [10] = tested on: rape; experiment: Test B pre/postemergence rape; format: in vivo, Brassica napus
# Outline: as §1
# [11] = tested on: sugar beet; experiment: Test B pre/postemergence sugar beet; format: in vivo, Beta vulgaris
# Outline: as §1
# [12] = tested on: wheat; experiment: Test B pre/postemergence wheat; format: in vivo, Triticum aestivum
# Outline: as §1
# [13] = tested on: wild oat; experiment: Test B pre/postemergence wild oat; format: in vivo, Avena fatua
# Outline: as §1
# [14] = tested on: purple nutsedge; experiment: Test B pre/postemergence purple nutsedge; format: in vivo, Cyperus rotundus
# Outline: as §1
# [15] = tested on: rice; experiment: Test B flood test rice; format: in vivo, Oryza sativa
# Outline: (§2)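 Read-out is a visual response score from 0 (no effect) to 10 (complete control), assigned by comparison with untreated controls. Treatment was applied at the 2-leaf stage, and plants stayed in the greenhouse for twelve to sixteen days before scoring.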
# [16] = tested on: bamyardgrass; experiment: Test B flood test barnyardgrass; format: in vivo, Echinochloa crus-galli
# Outline: as §2
# [17] = Postemergence, Rate 250 g/ha, scale 0 to 10
# [18] = Postemergence, Rate 500 g/ha, scale of 0 to 10 where 0 is no effect and 10 is complete control
# [19] = Preemergence, Rate 62 g/ha, scale 0 to 10 (0 no effect, 10 complete control)
# [20] = Preemergence, Rate 125 g/ha, scale of 0 to 10 where 0 is no effect and 10 is complete control
# [21] = Preemergence, Rate 250 g/ha, scale 0 to 10, 0 is no effect, 10 is complete control
# [22] = Preemergence, Rate 500 g/ha, scale 0 to 10, 0 is no effect, 10 is complete control
# [23] = Rate 62 g/ha, Postemergence, scale 0 to 10, 0 no effect, 10 complete control
# [24] = Rate 125 g/ha, Postemergence, scale 0 to 10, 0 is no effect, 10 is complete control
# [25] = Postemergence block (flood test species), Rate 250 g/ha, scale 0 to 10
# [26] = Postemergence section (flood test species), Rate 500 g/ha, scale of 0 to 10 where 0 is no effect and 10 is complete control
# [27] = Rate 62 g/ha, Postemergence (flood test), scale 0 to 10, 0 no effect, 10 complete control
# [28] = Rate 125 g/ha, Postemergence section (flood test species), scale 0 to 10, 0 is no effect, 10 is complete control
structure (smiles),measurement,setting,value
CC(C)N(C(=O)n1oc(=O)n(CCC#N)c1=O)c1ccccc1 [Compound 436],Bedstraw plant response rating,"[1]; Rate 250 g/ha, scale 0 to 10",0
same,Bedstraw plant response rating,"[1]; Rate 62 g/ha, scale 0 to 10, 0 no effect, 10 complete control",0
same,Bedstraw plant response rating,"[1]; Rate 125 g/ha, scale 0 to 10, 0 is no effect, 10 is complete control",0
same,Blackgrass plant response rating,[2]; [17],0
same,Blackgrass plant response rating,[2]; [18],9
same,"Plant response rating, Blackgrass",[2]; [19],0
same,"Plant response rating, Blackgrass",[2]; [20],0
same,Blackgrass plant response rating,[2]; [21],0
same,Blackgrass plant response rating,[2]; [22],9
same,Blackgrass plant response rating,[2]; [23],0
same,Blackgrass plant response rating,[2]; [24],0
same,B. signalgrass plant response rating,"[3]; Postemergence, Rate 250 g/ha, scale 0 to 10, 0 no effect, 10 complete control",0
same,B. signalgrass plant response rating,[3]; [18],8
same,"Plant response rating, B. signalgrass",[3]; [19],0
same,"Plant response rating, B. signalgrass",[3]; [20],0
same,B. signalgrass plant response rating,[3]; [21],0
same,B. signalgrass plant response rating,[3]; [22],10
same,B. signalgrass plant response rating,[3]; [23],0
same,B. signalgrass plant response rating,[3]; [24],0
same,Cocklebur plant response rating,[4]; [17],0
same,Cocklebur plant response rating,[4]; [18],0
same,"Plant response rating, Cocklebur",[4]; [19],0
same,"Plant response rating, Cocklebur",[4]; [20],0
same,Cocklebur plant response rating,[4]; [21],0
same,Cocklebur plant response rating,[4]; [22],0
same,Cocklebur plant response rating,[4]; [23],0
same,Cocklebur plant response rating,[4]; [24],0
same,Corn plant response rating,[5]; [17],0
same,Corn plant response rating,[5]; [18],5
same,"Plant response rating, Corn",[5]; [19],0
same,"Plant response rating, Corn",[5]; [20],0
same,Corn plant response rating,[5]; [21],0
same,Corn plant response rating,[5]; [22],9
same,Corn plant response rating,[5]; [23],0
same,Corn plant response rating,[5]; [24],0
same,Crabgrass plant response rating,[6]; [17],1
same,Crabgrass plant response rating,[6]; [18],9
same,"Plant response rating, Crabgrass",[6]; [19],0
same,"Plant response rating, Crabgrass",[6]; [20],0
same,Crabgrass plant response rating,[6]; [21],0
same,Crabgrass plant response rating,[6]; [22],10
same,Crabgrass plant response rating,[6]; [23],0
same,Crabgrass plant response rating,[6]; [24],0
same,Giant foxtail plant response rating,[7]; [17],1
same,Giant foxtail plant response rating,[7]; [18],9
same,"Plant response rating, Giant foxtail",[7]; [19],0
same,"Plant response rating, Giant foxtail",[7]; [20],0
same,Giant foxtail plant response rating,[7]; [21],0
same,Giant foxtail plant response rating,[7]; [22],10
same,Giant foxtail plant response rating,[7]; [23],0
same,Giant foxtail plant response rating,[7]; [24],0
same,Morningglory plant response rating,[8]; [17],2
same,Morningglory plant response rating,[8]; [18],10
same,"Plant response rating, Morningglory",[8]; [19],0
same,"Plant response rating, Morningglory",[8]; [20],0
same,Morningglory plant response rating,[8]; [21],0
same,Morningglory plant response rating,[8]; [22],1
same,Morningglory plant response rating,[8]; [23],0
same,Morningglory plant response rating,[8]; [24],0
same,Redroot pigweed plant response rating,[9]; [17],0
same,Redroot pigweed plant response rating,[9]; [18],7
same,"Plant response rating, Redroot pigweed",[9]; [19],0
same,"Plant response rating, Redroot pigweed",[9]; [20],0
same,Redroot pigweed plant response rating,[9]; [21],0
same,Redroot pigweed plant response rating,[9]; [22],10
same,Redroot pigweed plant response rating,[9]; [23],0
same,Redroot pigweed plant response rating,[9]; [24],0
same,Rape plant response rating,[10]; [17],0
same,Rape plant response rating,[10]; [18],4
same,"Plant response rating, Rape",[10]; [19],0
same,"Plant response rating, Rape",[10]; [20],0
same,Rape plant response rating,[10]; [21],0
same,Rape plant response rating,[10]; [22],10
same,Rape plant response rating,[10]; [23],0
same,Rape plant response rating,[10]; [24],0
same,Sugarbeets plant response rating,[11]; [17],0
same,Sugarbeets plant response rating,[11]; [18],0
same,"Plant response rating, Sugarbeets",[11]; [19],0
same,"Plant response rating, Sugarbeets",[11]; [20],0
same,Sugarbeets plant response rating,[11]; [21],0
same,Sugarbeets plant response rating,[11]; [22],5
same,Sugarbeets plant response rating,[11]; [23],0
same,Sugarbeets plant response rating,[11]; [24],0
same,Wheat plant response rating,[12]; [17],0
same,Wheat plant response rating,[12]; [18],7
same,"Plant response rating, Wheat",[12]; [19],0
same,"Plant response rating, Wheat",[12]; [20],0
same,Wheat plant response rating,[12]; [21],0
same,Wheat plant response rating,[12]; [22],5
same,Wheat plant response rating,[12]; [23],0
same,Wheat plant response rating,[12]; [24],0
same,Wild oats plant response rating,[13]; [17],0
same,Wild oats plant response rating,[13]; [18],3
same,"Plant response rating, Wild oats",[13]; [19],0
same,"Plant response rating, Wild oats",[13]; [20],0
same,Wild oats plant response rating,[13]; [21],0
same,Wild oats plant response rating,[13]; [22],10
same,Wild oats plant response rating,[13]; [23],0
same,Wild oats plant response rating,[13]; [24],0
same,Nutsedge plant response rating,[14]; [17],0
same,Nutsedge plant response rating,[14]; [18],3
same,"Plant response rating, Nutsedge",[14]; [19],0
same,"Plant response rating, Nutsedge",[14]; [20],0
same,Nutsedge plant response rating,[14]; [21],0
same,Nutsedge plant response rating,[14]; [22],5
same,Nutsedge plant response rating,[14]; [23],0
same,Nutsedge plant response rating,[14]; [24],0
same,Rice plant response rating,[15]; [25],0
same,Rice plant response rating,[15]; [26],0
same,Rice plant response rating,[15]; [27],0
same,Rice plant response rating,[15]; [28],0
same,Barnyardgrass plant response rating,[16]; [25],0
same,Barnyardgrass plant response rating,[16]; [26],0
same,Barnyardgrass plant response rating,[16]; [27],0
same,Barnyardgrass plant response rating,[16]; [28],0
